Measured values reported in ChEMBL document CHEMBL5154842, “Unique Carbazole-Oxadiazole Derivatives as New Potential Antibiotics for Combating Gram-Positive and -Negative Bacteria” (J Med Chem, 2022).
≈ marks a conversion by molar mass, not a printed value. Calls of active or inactive are those of the source. The calls are words filed in the database; no cut-off is given here.

What was measured:
[1] = system: Staphylococcus aureus; assay: Antibacterial activity against methicillin-resistant Staphylococcus aureus N315 assessed as inhibition of bacterial growth incubated for 24 hrs by CLSI protocol based two fold serial dilution method; format: functional
[2] = system: Enterococcus faecalis; assay: Antibacterial activity against Enterococcus faecalis assessed as inhibition of bacterial growth incubated for 24 hrs by CLSI protocol based two fold serial dilution method; format: functional
[3] = system: Staphylococcus aureus; assay: Antibacterial activity against Staphylococcus aureus assessed as inhibition of bacterial growth incubated for 24 hrs by CLSI protocol based two fold serial dilution method; format: functional
[4] = system: Staphylococcus aureus; assay: Antibacterial activity against Staphylococcus aureus 25923 assessed as inhibition of bacterial growth incubated for 24 hrs by CLSI protocol based two fold serial dilution method; format: functional
[5] = system: Staphylococcus aureus; assay: Antibacterial activity against Staphylococcus aureus 29213 assessed as inhibition of bacterial growth incubated for 24 hrs by CLSI protocol based two fold serial dilution method; format: functional
[6] = system: Klebsiella pneumoniae; assay: Antibacterial activity against Klebsiella pneumonia assessed as inhibition of bacterial growth incubated for 24 hrs by CLSI protocol based two fold serial dilution method; format: functional
[7] = system: Escherichia coli; assay: Antibacterial activity against Escherichia coli assessed as inhibition of bacterial growth incubated for 24 hrs by CLSI protocol based two fold serial dilution method; format: functional
[8] = system: Escherichia coli; assay: Antibacterial activity against Escherichia coli 25922 assessed as inhibition of bacterial growth incubated for 24 hrs by CLSI protocol based two fold serial dilution method; format: functional
[9] = system: Pseudomonas aeruginosa; assay: Antibacterial activity against Pseudomonas aeruginosa assessed as inhibition of bacterial growth incubated for 24 hrs by CLSI protocol based two fold serial dilution method; format: functional
[10] = system: Pseudomonas aeruginosa; assay: Antibacterial activity against Pseudomonas aeruginosa ATCC 27853 assessed as inhibition of bacterial growth incubated for 24 hrs by CLSI protocol based two fold serial dilution method; format: functional
[11] = system: Acinetobacter baumannii; assay: Antibacterial activity against Acinetobacter baumannii assessed as inhibition of bacterial growth incubated for 24 hrs by CLSI protocol based two fold serial dilution method; format: functional
[12] = system: Staphylococcus aureus; assay: Antibacterial activity against methicillin-resistant Staphylococcus aureus N315 assessed as inhibition of bacterial growth at 0.5 to 16 ug/ml measured after 24 hrs by microplate reader assay; format: functional, organism-based; conditions: dose 0.5-16 µg/ml
[13] = Hemolytic activity in human RBC assessed as hemolysis at 1 to 32 ug/ml measured after 60 mins by microplate reader assay relative to control; format: toxicity, cell-based, Erythrocyte; conditions: red blood cells (erythrocytes), at 1 to 32 µg/mL, dose 1-32 µg/ml, read-out: Activity
[14] = system: Staphylococcus aureus; assay: Antibacterial activity against methicillin-resistant Staphylococcus aureus N315 assessed as inhibition of bacterial growth at 0.25 to 64 ug/ml incubated for 24 hrs by Alamar blue assay; format: functional, organism-based; conditions: dose 0.25-64 µg/ml
[15] = system: Staphylococcus aureus; assay: Antibacterial activity against methicillin-resistant Staphylococcus aureus N315 assessed as change in susceptibility at sub-MIC treated over 9 serial passages measured after 9 days by resistance development assay; format: functional, organism-based; conditions: time 9.0 day

| Compound | MIC [1] | MIC [2] | MIC [3] | MIC [4] | MIC [5] | MIC [6] | MIC [7] | MIC [8] | MIC [9] | MIC [10] | MIC [11] | Activity [12] | hemolysis at 1 h [13] | Activity [14] | Activity [15] |
| --- | --- | --- | --- | --- | --- | --- | --- | --- | --- | --- | --- | --- | --- | --- | --- |
| CCOc1cccc2c1c1ccccc1n2Cc1nnc(S)o1 | 1 µg/mL (≈ 3.07 µM) | 1 µg/mL (≈ 3.07 µM) | 64 µg/mL (≈ 197 µM) | 16 µg/mL (≈ 49.2 µM) | 0.5 µg/mL (≈ 1.54 µM) | 32 µg/mL (≈ 98.3 µM) | 0.5 µg/mL (≈ 1.54 µM) | 0.25 µg/mL (≈ 0.768 µM) | 256 µg/mL (≈ 787 µM) | 256 µg/mL (≈ 787 µM) | 0.25 µg/mL (≈ 0.768 µM) | Active | < 3% | Active | – |
| c1ccc2c(c1)[nH]c1cccc(OCc3nnn[nH]3)c12 | 0.5 µg/mL (≈ 1.88 µM) | 64 µg/mL (≈ 241 µM) | 128 µg/mL (≈ 483 µM) | 128 µg/mL (≈ 483 µM) | 128 µg/mL (≈ 483 µM) | 64 µg/mL (≈ 241 µM) | 128 µg/mL (≈ 483 µM) | 128 µg/mL (≈ 483 µM) | 128 µg/mL (≈ 483 µM) | 0.5 µg/mL (≈ 1.88 µM) | 128 µg/mL (≈ 483 µM) | – | – | – | – |
| C=CCSc1nnc2c3ccccc3n(Cc3nnc(S)o3)c2n1 | 256 µg/mL (≈ 718 µM) | 256 µg/mL (≈ 718 µM) | 256 µg/mL (≈ 718 µM) | 256 µg/mL (≈ 718 µM) | 256 µg/mL (≈ 718 µM) | 256 µg/mL (≈ 718 µM) | 256 µg/mL (≈ 718 µM) | 256 µg/mL (≈ 718 µM) | 256 µg/mL (≈ 718 µM) | 256 µg/mL (≈ 718 µM) | 256 µg/mL (≈ 718 µM) | – | – | – | – |
| CCn1c2ccccc2c2nnc(SCc3nnc(S)o3)nc21 | 256 µg/mL (≈ 743 µM) | 256 µg/mL (≈ 743 µM) | 256 µg/mL (≈ 743 µM) | 256 µg/mL (≈ 743 µM) | 256 µg/mL (≈ 743 µM) | 256 µg/mL (≈ 743 µM) | 256 µg/mL (≈ 743 µM) | 256 µg/mL (≈ 743 µM) | 256 µg/mL (≈ 743 µM) | 256 µg/mL (≈ 743 µM) | 256 µg/mL (≈ 743 µM) | – | – | – | – |
| CN[C@H](CC(C)C)C(=O)N[C@H]1C(=O)N[C@@H](CC(N)=O)C(=O)N[C@H]2C(=O)N[C@H]3C(=O)N[C@H](C(=O)N[C@H](C(=O)O)c4cc(O)cc(O)c4-c4cc3ccc4O)[C@H](O)c3ccc(c(Cl)c3)Oc3cc2cc(c3O[C@@H]2O[C@H](CO)[C@@H](O)[C@H](O)[C@H]2O[C@H]2C[C@](C)(N)[C@H](O)[C@H](C)O2)Oc2ccc(cc2Cl)[C@H]1O [VANCOMYCIN] | – | 2 µg/mL (≈ 1.38 µM) | – | – | – | – | – | – | – | – | – | – | – | – | – |
| CCCCOc1cccc2c1c1ccccc1n2Cc1nnc(S)o1 | 256 µg/mL (≈ 724 µM) | 4 µg/mL (≈ 11.3 µM) | 256 µg/mL (≈ 724 µM) | 256 µg/mL (≈ 724 µM) | 256 µg/mL (≈ 724 µM) | 256 µg/mL (≈ 724 µM) | 256 µg/mL (≈ 724 µM) | 256 µg/mL (≈ 724 µM) | 256 µg/mL (≈ 724 µM) | 256 µg/mL (≈ 724 µM) | 0.25 µg/mL (≈ 0.707 µM) | – | – | – | – |
| CCSc1nnc2c3ccccc3n(Cc3nnc(S)o3)c2n1 | 256 µg/mL (≈ 743 µM) | 256 µg/mL (≈ 743 µM) | 256 µg/mL (≈ 743 µM) | 256 µg/mL (≈ 743 µM) | 256 µg/mL (≈ 743 µM) | 256 µg/mL (≈ 743 µM) | 256 µg/mL (≈ 743 µM) | 256 µg/mL (≈ 743 µM) | 256 µg/mL (≈ 743 µM) | 256 µg/mL (≈ 743 µM) | 256 µg/mL (≈ 743 µM) | – | – | – | – |
| Sc1nnc(Cn2c3ccccc3c3c(OCCN4CCOCC4)cccc32)o1 | 128 µg/mL (≈ 312 µM) | 64 µg/mL (≈ 156 µM) | 128 µg/mL (≈ 312 µM) | 128 µg/mL (≈ 312 µM) | 32 µg/mL (≈ 78 µM) | 64 µg/mL (≈ 156 µM) | 64 µg/mL (≈ 156 µM) | 128 µg/mL (≈ 312 µM) | 256 µg/mL (≈ 624 µM) | 64 µg/mL (≈ 156 µM) | 128 µg/mL (≈ 312 µM) | – | – | – | – |
| CCCOc1cccc2c1c1ccccc1n2Cc1nnc(S)o1 | 2 µg/mL (≈ 5.89 µM) | 2 µg/mL (≈ 5.89 µM) | 128 µg/mL (≈ 377 µM) | 2 µg/mL (≈ 5.89 µM) | 4 µg/mL (≈ 11.8 µM) | 4 µg/mL (≈ 11.8 µM) | 4 µg/mL (≈ 11.8 µM) | 1 µg/mL (≈ 2.95 µM) | 256 µg/mL (≈ 754 µM) | 4 µg/mL (≈ 11.8 µM) | 0.25 µg/mL (≈ 0.737 µM) | – | – | – | – |
| CCCCCCOc1cccc2c1c1ccccc1n2Cc1nnc(S)o1 | 256 µg/mL (≈ 671 µM) | 256 µg/mL (≈ 671 µM) | 256 µg/mL (≈ 671 µM) | 256 µg/mL (≈ 671 µM) | 1 µg/mL (≈ 2.62 µM) | 256 µg/mL (≈ 671 µM) | 8 µg/mL (≈ 21 µM) | 4 µg/mL (≈ 10.5 µM) | 256 µg/mL (≈ 671 µM) | 256 µg/mL (≈ 671 µM) | 256 µg/mL (≈ 671 µM) | – | – | – | – |
| Sc1nnc(Cn2c3ccccc3c3c(OCC4CCCC4)cccc32)o1 | 2 µg/mL (≈ 5.27 µM) | 1 µg/mL (≈ 2.64 µM) | 256 µg/mL (≈ 675 µM) | 4 µg/mL (≈ 10.5 µM) | 0.25 µg/mL (≈ 0.659 µM) | 4 µg/mL (≈ 10.5 µM) | 4 µg/mL (≈ 10.5 µM) | 1 µg/mL (≈ 2.64 µM) | 256 µg/mL (≈ 675 µM) | 4 µg/mL (≈ 10.5 µM) | 2 µg/mL (≈ 5.27 µM) | Active | < 3% | Active | Active |
| Fc1ccccc1COc1cccc2c1c1ccccc1n2Cc1nnc(S)o1 | 16 µg/mL (≈ 39.5 µM) | 256 µg/mL (≈ 631 µM) | 256 µg/mL (≈ 631 µM) | 256 µg/mL (≈ 631 µM) | 64 µg/mL (≈ 158 µM) | 32 µg/mL (≈ 78.9 µM) | 128 µg/mL (≈ 316 µM) | 16 µg/mL (≈ 39.5 µM) | 256 µg/mL (≈ 631 µM) | 0.25 µg/mL (≈ 0.617 µM) | 64 µg/mL (≈ 158 µM) | – | – | – | – |
